# Measurements taken from US20230123601A1, “PHARMACEUTICAL COMBINATION OF ANTIVIRAL AGENTS TARGETING HBV AND/OR AN IMMUNE MODULATOR FOR TREATMENT OF HBV” (priority 2019, published 2023).
# Tested on: HBV
# Assay: HBV-DNA levels in serum of AAV/HBV mice (qPCR)
# Type: in vivo, C57BL/6 mice
# Design: HBV-DNA levels in serum: unit not given here
# Excerpt: The AAV-HBV mouse model is generated by injecting C57BL/6 mice with recombinant adeno-associated virus harboring a replicable HBV genome (AAV-HBV). The rAAV8-1.3 HBV ayw virus stock was purchased from Beijing FivePlus Molecular Medicine Institute (Beijing, China). The animals (male, aged 4-5 weeks upon arrival) were purchased from SLAC Laboratory Animal Co. Ltd (Shanghai, China), acclimatized in the animal facility for 5-7 days, and then injected with 1×10^11 vector genome of AAV-HBV (diluted in 200 μL of PBS) through the tail vein. Persistence expression of HBV genome can be established after three weeks, with high levels of HBV viral markers including HBV DNA, HBsAg, and HBeAg in mouse serum. With stable HBV viremia and competent immune system of the C57BL/6 mice, the AAV-HBV mouse model was used to evaluate the in vivo anti-HBV efficacy of the compounds. The in-life part of the AAV-HBV study was conducted through contracted service at Covance Pharmaceutical Research and Development (Shanghai) Co. Ltd. (Covance Shanghai) and the post-life analysis using the serum was performed internally at Roche Innovation Center Shanghai (RICS).
# Seven days before compound treatment, blood samples were collected for serum preparation (˜15 μL), and based on HBV DNA, HBsAg levels in serum and body weight, the AAV-HBV infected animals were stratified into the different treatment groups.
# Saline (Group 01) and anti-HBV ASO of CMP ID NO: 15_1 at 1.5 or 7.5 mg/kg were dosed sub subcutaneously once a week during Day 0-49 on Days 0, 7, 14, 21, 28, 35, 42 and 49. TLR7 agonist of CMP ID NO: VI 100 mg/kg was administered by oral gavage once every other day during Day 0-55 (QOD) or once weekly during Day 0-49 on Days 0, 7, 14, 21, 28, 35, 42 and 49 (QW). The animals were weekly bled via retro-orbital sinus for sample collection throughout the study.
# Initially mice serum was diluted by a factor of 10 (1:10) with Phosphate buffered saline (PBS). DNA was extracted using the MagNA Pure 96 (Roche) robot. 50 μl of the diluted serum was mixed in a processing cartridge with 200 ul MagNA Pure 96 external lysis buffer (Roche, Cat. no. 06374913001) and incubated for 10 minutes. DNA was then extracted using the “MagNA Pure 96 DNA and Viral Nucleic Acid Small Volume Kit” (Roche, Cat. no. 06543588001) and the “Viral NA Plasma SV external lysis 2.0” protocol. DNA elution volume was 50 μl.
# Quantification of extracted HBV DNA was performed using a Taqman qPCR machine (ViiA7, life technologies). Each DNA sample was tested in duplicate in the PCR. 5 μl of DNA sample was added to 15 μl of PCR mastermix containing 10 μl TaqMan Gene Expression Master Mix (Applied Biosystems, Cat. no. 4369016), 0.5 μl PrimeTime XL qPCR Primer/Probe (IDT) and 4.5 μl distilled water in a 384 well plate and the PCR was performed using the following settings: UDG Incubation (2 min, 50° C.), Enzyme Activation (10 min, 95° C.) and PCR (40 cycles with 15 sec, 95° for Denaturing and 1 min, 60° C. for annealing and extension). DNA copy numbers were calculated from Ct values based on a HBV plasmid DNA standard curve by the ViiA7 software.
# To evaluate the combination of the anti-HBV ASO and the TLR7 agonist in an in vivo system, a mouse model of chronic HBV infection was used. In the AAV/HBV mouse model described in the Materials and Method a persistent HBV infection is established resulting in expression of viral markers (HBsAg, HBeAg, HBV DNA) detectable in plasma. The effect on these viral markers upon treatment with the anti-HBV ASO of CMP ID NO: 15_1 (table 2, and FIG. 4) dosed at 1.5 mg/kg or 7.5 mg/kg and the TLR7 agonist of CMP ID NO: VI (table 3) dosed with […] every other day (QOD) or once weekly (QW) in monotherapy or in combination has been evaluated.
structure (smiles),measurement,setting,value
"CC[C@H](OC(C)=O)[C@@H]1C[C@@H](O)[C@H](n2c(=O)sc3cnc(N)nc32)O1 [CMP ID NO: VI, [(1S)-1-[(2S,4R,5R)-5-(5-amino-2-oxo-thiazolo[4,5-d]pyrimidin-3-yl)-4-hydroxy-tetrahydrofuran-2-yl]propyl] acetate]",HBV-DNA levels in serum,"TLR7 100 mg/kg QOD, D0",7.69 ± 0.19
same,HBV-DNA levels in serum,"TLR7 100 mg/kg QOD, D7",5.74 ± 0.62
same,HBV-DNA levels in serum,"TLR7 100 mg/kg QOD, D14, 100 mg/kg",5.73 ± 1.2
same,HBV-DNA levels in serum,"TLR7 100 mg/kg QOD, D21",5.55 ± 0.32
same,HBV-DNA levels in serum,"TLR7 100 mg/kg QOD, D28",5.23 ± 1.02
same,HBV-DNA levels in serum,"TLR7 100 mg/kg QOD, D35",4.69 ± 0.71
same,HBV-DNA levels in serum,"TLR7 100 mg/kg QOD, D42",4.72 ± 0.76
same,HBV-DNA levels in serum,"TLR7 100 mg/kg QOD, D49, 100 mg/kg",4.5 ± 0.55
same,HBV-DNA levels in serum,"TLR7 100 mg/kg QOD, D56",4.59 ± 0.65
same,HBV-DNA levels in serum,"TLR7 100 mg/kg QOD, D63, 100 mg/kg",5.3 ± 1.21
same,HBV-DNA levels in serum,"TLR7 100 mg/kg QOD, D70",5.95 ± 1.17
same,HBV-DNA levels in serum,"TLR7 100 mg/kg QOD, D77",6.01 ± 1.17
same,HBV-DNA levels in serum,"TLR7 100 mg/kg QOD, D84",6.26 ± 1.08
same,HBV-DNA levels in serum,"TLR7 100 mg/kg QOD, D91",5.81 ± 1.09
same,HBV-DNA levels in serum,"TLR7 100 mg/kg QOD, D98",6.02 ± 1.17
same,HBV-DNA levels in serum,"TLR7 100 mg/kg QOD, D105",6.23 ± 1.29
same,HBV-DNA levels in serum,"TLR7 100 mg/kg QOD, D111",6.77 ± 0.64
same,HBV-DNA levels in serum,"TLR7 100 mg/kg QW, D0, 100 mg/kg",7.68 ± 0.2
same,HBV-DNA levels in serum,"TLR7 100 mg/kg QW, D7",7.15 ± 0.67
same,HBV-DNA levels in serum,"TLR7 100 mg/kg QW, D14",7.14 ± 0.47
same,HBV-DNA levels in serum,"TLR7 100 mg/kg QW, D21",6.65 ± 0.75
same,HBV-DNA levels in serum,"TLR7 100 mg/kg QW, D28, 100 mg/kg",6.1 ± 1.25
same,HBV-DNA levels in serum,"TLR7 100 mg/kg QW, D35",6.61 ± 0.98
same,HBV-DNA levels in serum,"TLR7 100 mg/kg QW, D42, 100 mg/kg",6.4 ± 0.84
same,HBV-DNA levels in serum,"TLR7 100 mg/kg QW, D49",6.27 ± 0.89
same,HBV-DNA levels in serum,"TLR7 100 mg/kg QW, D56",6.74 ± 0.64
same,HBV-DNA levels in serum,"TLR7 100 mg/kg QW, D63, 100 mg/kg",6.72 ± 0.7
same,HBV-DNA levels in serum,"TLR7 100 mg/kg QW, D70, 100 mg/kg",6.8 ± 0.64
same,HBV-DNA levels in serum,"TLR7 100 mg/kg QW, D77",6.95 ± 0.53
same,HBV-DNA levels in serum,"TLR7 100 mg/kg QW, D84",6.87 ± 0.49
same,HBV-DNA levels in serum,"TLR7 100 mg/kg QW, D91",6.59 ± 0.52
same,HBV-DNA levels in serum,"TLR7 100 mg/kg QW, D98, 100 mg/kg",6.7 ± 0.4
same,HBV-DNA levels in serum,"TLR7 100 mg/kg QW, D105",6.93 ± 0.43
same,HBV-DNA levels in serum,"TLR7 100 mg/kg QW, D111",7.07 ± 0.45
same,"HBV DNA rebound, distance to control group","TLR7 agonist QOD or QW monotherapy, follow-up period",≤ 1 log
same,reduction of HBV-DNA,TLR7 agonist alone,only reached the LLOQ when dosed every other day (QOD)
same,timing of HBV DNA rebound,TLR7 agonist monotherapy,occurred sooner after the end of treatment than it did in the anti-HBV ASO treated groups
same,maximal reduction of HBV-DNA,"TLR7 agonist monotherapy, QW dosing",around 1.5 log
